Columns and labels:
[1] = target: T1, 5-HT1A (Rattus norvegicus, UniProt P19327); assay: Receptor binding assay, 5-HT1A (3H-8-OH-DPAT); set-up: species or system male Wistar rat; details: 3H-8-OH-DPAT 0.7 nM, frontal cortex
T1 construct: from tissue; host or cells: male Wistar rat frontal cortex, membrane fraction
T1 sequence (P19327 1-422): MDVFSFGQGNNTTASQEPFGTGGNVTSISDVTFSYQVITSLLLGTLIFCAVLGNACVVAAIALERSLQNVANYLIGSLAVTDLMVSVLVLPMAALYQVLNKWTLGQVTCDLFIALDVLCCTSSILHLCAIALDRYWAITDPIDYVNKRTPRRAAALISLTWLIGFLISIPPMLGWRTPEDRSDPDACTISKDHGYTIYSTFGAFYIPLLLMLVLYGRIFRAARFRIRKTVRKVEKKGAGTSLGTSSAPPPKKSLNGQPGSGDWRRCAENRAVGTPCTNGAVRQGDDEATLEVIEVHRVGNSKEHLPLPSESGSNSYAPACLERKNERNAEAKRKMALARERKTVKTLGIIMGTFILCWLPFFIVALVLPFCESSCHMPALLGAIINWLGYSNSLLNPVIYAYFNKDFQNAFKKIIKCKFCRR
Protocol: (§1) The different brain regions of 120-200 g male Wistar rats were used for receptor binding assays except for 5-HT2c receptors where binding studies were performed on porcine choroid plexus. Protein content of the membrane fraction was determined as described by Lowry [Lowry, O. H., Rosebrough, M. J., Farr, A. L. and Randall, R. Y.: J. Biol. Chem., 193: 265-275, 1951].
frontal 5-HT Peroutka, S.
0.7 nM cortex (10 μM) J. J.

[2] = target: T2, 5-HT2A (Rattus norvegicus, UniProt P14842); assay: Receptor binding assay, 5-HT2A (3H-ketanserin); set-up: species or system male Wistar rat; details: 3H-ketanserin 1.0 nM, frontal cortex
T2 construct: from tissue; host or cells: male Wistar rat frontal cortex, membrane fraction
Protocol: as §1
5-HT2A ^3 H-ketanserin frontal cyprohepta- Leysen, J. E.
1.0 nM cortex dine et al.: Mol.

[3] = target: T3, 5-HT2C (Sus scrofa, UniProt K7GSR7); assay: biochemical; type: binding, porcine
T3 construct: from tissue; host or cells: porcine choroid plexus
T3 sequence (K7GSR7 1-457): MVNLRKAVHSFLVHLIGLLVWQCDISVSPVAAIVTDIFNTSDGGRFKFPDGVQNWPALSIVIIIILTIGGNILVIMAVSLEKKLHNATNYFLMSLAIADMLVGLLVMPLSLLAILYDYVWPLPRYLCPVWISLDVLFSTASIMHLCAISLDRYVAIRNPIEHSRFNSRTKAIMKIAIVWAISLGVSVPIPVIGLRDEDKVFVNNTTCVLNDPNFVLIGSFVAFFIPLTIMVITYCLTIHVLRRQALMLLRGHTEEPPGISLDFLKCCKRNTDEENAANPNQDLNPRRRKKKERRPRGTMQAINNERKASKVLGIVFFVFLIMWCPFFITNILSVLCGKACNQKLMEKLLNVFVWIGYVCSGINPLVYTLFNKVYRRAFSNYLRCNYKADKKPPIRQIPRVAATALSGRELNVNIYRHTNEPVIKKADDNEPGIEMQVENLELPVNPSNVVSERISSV
Protocol: as §1
(§2) 5-HT2C ^3 H-mesulergin choroid mianserin Pazos, A. et
(§3) 1.0 nM plexus (1 μM) al. Eur. J.

[4] = system: 5-HT2C; assay: biochemical; type: binding, porcine; details: among 5-HT receptors
Protocol: as §1, §2, §3

[5] = target: T4, D1 (Rattus norvegicus, UniProt P18901); assay: Receptor binding assay, D1 (3H-SCH 23390); set-up: species or system male Wistar rat; details: 3H-SCH 23390 0.78 Nm, striatum
T4 construct: from tissue; host or cells: male Wistar rat striatum, membrane fraction
Protocol: as §1
D1 ^3 H-SCH 23390 striatum cis- Hietala J. et
0.78 Nm flupentixol al., Neurosci.

[6] = target: T5, D2 (Rattus norvegicus, UniProt P61169); assay: Receptor binding assay, D2 (3H-spiperone); set-up: species or system male Wistar rat; details: 3H-spiperone 0.5 nM, striatum
T5 construct: from tissue; host or cells: male Wistar rat striatum, membrane fraction
Protocol: as §1
D2 ^3 H-spiperone striatum butaclamol Leff, S. et al.,

[7] = target: T6, Sigma (Rattus norvegicus, UniProt Q9R0C9); assay: Receptor binding assay, Sigma (3H-pentazocine); set-up: species or system male Wistar rat; details: for Ki: Sigma, 3H-pentazocine 3.0 nM, cerebellum
T6 construct: from tissue; host or cells: male Wistar rat cerebellum, membrane fraction
Protocol: as §1
Sigma ^3 H-pentazocine cerebellum haloperidol Costa B. R. et
3.0 nM (10 μM) al., Febs Lett.,

[8] = Elevated plus-maze test; type: in vivo, male Sprague-Dawley rats; details: for minimal effective dose: Rattus norvegicus, 1 h, treated 60 minutes prior to the test, based on times spent in the open arms, read-out: MED (minimal effective dose), elevated plus maze; for effect in the elevated plus maze test (in words): rat, in vivo
Protocol: The elevated plus-maze consisted of two open and two 40 cm wall enclosed arms of the same size (50×15 cm) arranged in the shape of a cross. The arms of the same type were opposite to each other. The junction of the four arms forms a central square area (15×15 cm). The apparatus is made of wooden material elevated to a height of 50 cm from the floor and illuminated by a dim light from above.
Male Sprague-Dawley rats weighing 220-260 g were treated with the test or reference compounds 60 minutes prior to the test. They were then placed onto the central square area and were subjected to the test for 5 minutes. The following parameters were determined:
Time spent in the open arms;
Time spent in the closed arms;
Number of entries into the open arms;
Number of entries into the closed arms.
A compound was considered to be effective when significant increase was found either in the time spent in the open arms or in the number of entries into the open arms when compared to the control animals. Minimum Effective Doses (MED) were determined based on the times spent in the open arms for each compound examined (Table II) [Pelow et al., J. Neurosci. Methods, 14: 149-169, 1985].

[9] = Inhibition of mCPP induced anxiety (light-dark apparatus); type: in vivo, male Wistar rats; details: for minimal effective dose: Rattus norvegicus, ip, treated twenty minutes before mCPP s.c., read-out: MED (minimal effective dose), inhibition of mCPP induced anxiety; for effect on mCPP induced anxiety (in words): rat model, Compound A up to 3.0 mg/kg i.p.
Protocol: The tests were carried out on male Wistar rats weighing 160-220 g according to Kennett [Kennett, G. A., Whitton, P., Shah, K. and Curzon, G. Eur. J. Pharmacol., 164: 445-454, 1989.]. The animals were treated either with the test compound or with vehiculum (0.4% methyl cellulose solution). Twenty minutes later either mCPP (m-chlorophenyl-piperazin) or physiological saline was administered subcutaneously. The animals were kept in the dark for additional 20 minutes, then they were placed into the light-dark apparatus (Omnitech, Digiscan, Model RXYZCM16) and their motor activity was recorded for five minutes. The testbox consisted of one dark and one lit compartment of the same size (39×20×29 cm) with an 8×8 gate providing free passage for the animals between the two compartments. The lit area was illuminated by a 40 W red light bulb 30 cm above the floor. Motor activity was recorded as the number of interruptions of the infrared light beams (16 beams 2 cm and 16 beams 8 cm above the floor). The number of crossing in the lit compartment was considered as the measure of antagonistic effect on mCPP induced anxiety. Data were statistically analyzed by one way ANOVA followed by Dunnet's t-test.

[10] = Inhibition of spontaneous motor activity; type: in vivo, mice; details: for ED50: Mus musculus, 1 h, treated 60 minutes prior to the test, ID50 by linear regression analysis
Protocol: Inhibition of Spontaneous Motor Activity
Spontaneous motor activity was measured as described earlier [Borsy et al., Arch. Int. Pharmacodyn. 124: 1-, 1960.] in a 10 box apparatus (Dews) 3--3 mice in each compartment. Mice were treated either with test compounds or with vehiculum 60 minutes prior to the test. The number of interruptions of the infrared light beams was counted, ID50 values were calculated by linear regression analysis (Table IV).

[11] = animal or person; type: in vivo, male NMRI mice; details: for ED50: Mus musculus, po, 1 h, read-out: ED50, potentiation of hexobarbital induced narcosis
Protocol: Potentiation of Hexobarbital Induced Narcosis
Male NMRI mice weighing 20-25 g were treated p.o. with the test compound or with vehiculum in 20 ml/kg volume 60 minutes prior to the iv. injection of 40 mg/kg (10 ml/kg) hexobarbital. The sleeping animals were placed on a flat surface lying on their left side and the accurate sleeping and awakening times were recorded. The animals were considered to be awaken when they rolled up from their side.
Sleeping times 2.5 times higher than the average of the control group were considered as criterion for potentiation (cut up method), results were expressed as percent increase compared to control values, ED50 values were calculated from the dose response curves according to Litchfield-Wilcoxon.

T6 sequence (Q9R0C9 whole entry): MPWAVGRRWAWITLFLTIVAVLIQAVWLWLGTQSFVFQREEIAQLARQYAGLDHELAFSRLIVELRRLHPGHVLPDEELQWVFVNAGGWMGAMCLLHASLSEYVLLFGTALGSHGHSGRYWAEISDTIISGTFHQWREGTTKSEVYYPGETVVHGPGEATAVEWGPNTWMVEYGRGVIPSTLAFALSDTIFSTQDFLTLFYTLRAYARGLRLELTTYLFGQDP
T2 sequence (P14842 whole entry): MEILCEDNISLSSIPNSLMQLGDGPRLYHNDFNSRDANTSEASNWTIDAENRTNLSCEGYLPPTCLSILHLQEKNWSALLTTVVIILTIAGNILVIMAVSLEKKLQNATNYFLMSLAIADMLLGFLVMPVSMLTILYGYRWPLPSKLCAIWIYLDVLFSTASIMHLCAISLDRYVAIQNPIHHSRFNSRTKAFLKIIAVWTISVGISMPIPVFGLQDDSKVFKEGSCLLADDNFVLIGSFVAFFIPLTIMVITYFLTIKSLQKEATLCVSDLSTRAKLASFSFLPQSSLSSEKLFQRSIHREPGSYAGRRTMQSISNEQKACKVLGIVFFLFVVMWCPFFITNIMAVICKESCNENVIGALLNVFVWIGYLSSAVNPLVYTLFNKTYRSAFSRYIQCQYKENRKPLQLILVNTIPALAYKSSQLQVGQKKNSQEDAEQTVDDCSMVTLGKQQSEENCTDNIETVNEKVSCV
T5 sequence (P61169 whole entry): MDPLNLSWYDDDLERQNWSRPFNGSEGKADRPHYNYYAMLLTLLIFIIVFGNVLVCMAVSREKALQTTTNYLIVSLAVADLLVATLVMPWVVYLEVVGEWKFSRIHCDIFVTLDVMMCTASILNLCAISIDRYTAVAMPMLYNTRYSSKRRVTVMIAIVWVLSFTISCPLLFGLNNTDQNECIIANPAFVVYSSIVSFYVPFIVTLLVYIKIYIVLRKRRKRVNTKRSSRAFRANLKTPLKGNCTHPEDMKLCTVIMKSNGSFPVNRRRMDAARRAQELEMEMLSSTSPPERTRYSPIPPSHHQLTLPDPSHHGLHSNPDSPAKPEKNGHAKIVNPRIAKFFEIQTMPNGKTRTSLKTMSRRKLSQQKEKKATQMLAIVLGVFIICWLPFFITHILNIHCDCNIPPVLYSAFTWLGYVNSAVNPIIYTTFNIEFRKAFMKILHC
T4 sequence (P18901 whole entry): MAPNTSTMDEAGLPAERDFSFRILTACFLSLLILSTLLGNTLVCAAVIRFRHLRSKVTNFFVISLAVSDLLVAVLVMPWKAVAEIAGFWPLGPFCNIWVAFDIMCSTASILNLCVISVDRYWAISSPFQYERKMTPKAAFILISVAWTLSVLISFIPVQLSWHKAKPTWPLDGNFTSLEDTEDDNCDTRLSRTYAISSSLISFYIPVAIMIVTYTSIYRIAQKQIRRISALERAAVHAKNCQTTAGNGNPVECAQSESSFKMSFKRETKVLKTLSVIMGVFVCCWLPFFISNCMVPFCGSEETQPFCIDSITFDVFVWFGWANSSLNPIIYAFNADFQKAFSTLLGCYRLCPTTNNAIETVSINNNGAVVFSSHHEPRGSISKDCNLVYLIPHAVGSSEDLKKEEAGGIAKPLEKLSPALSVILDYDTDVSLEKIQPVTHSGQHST

Row | SMILES | Ki [1] [nM] | Ki [2] [nM] | Ki [3] [nM] | selectivity of binding among 5-HT receptors (in words) [4] | Ki [5] [nM] | Ki [6] [nM] | binding at sigma receptors (in words) [7] | Ki [7] [nM] | minimal effective dose [8] [mg/kg] | effect in the elevated plus maze test (in words) [8] | minimal effective dose [9] [mg/kg] | effect on mCPP induced anxiety (in words) [9] | ED50 [10] [mg/kg] | inhibition of spontaneous motor activity (in words) ([10]; sedato-hypnotic side effect, compared to Compound B) | ED50 [11] [mg/kg] | potentiation of hexobarbital induced narcosis (in words) ([11]; mouse, in vivo)
1 | CNCCO[C@]1(c2ccccc2)C[C@H]2CC[C@]1(C)C2(C)C [Compound A, (1R,2S,4R)-(-)-2-phenyl-2-methylaminoethoxy-1,7,7-trimethyl-bicyclo[2.2.1]heptane-fumarate] | > 10000 | > 100 | 20 | binds only to 2C | 10000 | > 100 | does not | > 100 | 1 | effective in the elevated plus maze test | > 3 | completely ineffective up to 3.0 mg/kg i.p. | 57 | inhibited the spontaneous motor activity in higher doses only | 4 | potentiated the hexobarbital induced narcosis to a lesser extent
2 | CN(C)CCO[C@]1(c2ccccc2)C[C@H]2CC[C@]1(C)C2(C)C [Compound B, (1R,2S,4R)-(-)-2-phenyl-2-dimethylaminoethoxy-1,7,7-trimethyl-bicyclo[2.2.1]heptane-fumarate, reference compound] | > 10000 | 35 | 9 | not selective at 2C | > 1000 | > 100 | shows significant binding at sigma receptors | 52 | > 10 | did not show any effect | 0.5 | significantly antagonized the mCPP induced anxiety | 31.5 |  | 0.5 | 
